Data set [1] concerns high molecular weight DNA in tissues of Alitta virens. Nature of the data set: pH study: tissue stored 1 year in EDTA solutions at pH 8.0, 9.0, 10.0. Conditions: A. virens, one year of storage, room temperature. From the text:
The tissues of 5 species of aquatic animals were stored in the resulting solutions at room temperature for periods ranging from 6 weeks to 12 months.

Data set [2] relates to high molecular weight DNA in tissues of Mytilus edulis, Faxonius virilis and Alitta virens. Nature of the data set: Preservation of high molecular weight DNA in stored tissue, TapeStation % R and nY, statements covering several taxa. As to conditions: M. edulis and F. virilis, 3 months. On the procedure: (§1) To evaluate the contributions of the three components of DESS to DNA preservation in tissues, DNA quality was compared among extracts of tissues from three aquatic invertebrate taxa preserved for various time intervals in DESS or one of six DESS-variant solutions in a full factorial design. Each of these six variants contained either one of the three components of DESS individually or one of the three possible pairwise combinations of two DESS components. […] All solutions were prepared at room temperature (22-24° C.) using distilled deionized water as the diluent.
Live specimens of M. edulis and F. virilis were stored on ice and live A. virens were stored at 4° C. prior to dissection. Gill, abdominal muscle and body tissue samples were collected immediately after euthanasia from specimens of M. edulis, F. virilis, and A. virens, respectively. […] DNA was extracted from the ninth subsample, hereafter referred to as fresh tissue, immediately after dissection without preservation. […]
After the assigned storage interval, each tissue sample was removed from its storage solution and reweighed. […] To control for changes in tissue weight during storage, a correction ratio was calculated by dividing the tissue weight prior to storage by the post storage weight. […]

For data set [3], the system named is high molecular weight DNA in gill tissue of Mytilus edulis. As to the kind of experiment: Preservation of high molecular weight DNA in stored tissue, TapeStation % R and nY. As to conditions: M. edulis, 3 months, room temperature. The protocol: as §1
(§2) Live specimens of M. edulis and F. virilis were stored on ice and live A. virens were stored at 4° C. prior to dissection. Gill, abdominal muscle and body tissue samples were collected immediately after euthanasia from specimens of M. edulis, F. virilis, and A. virens, respectively. […] DNA was extracted from the ninth subsample, hereafter referred to as fresh tissue, immediately after dissection without preservation. […] Seven specimens of M. edulis, seven specimens of F. virilis and ten specimens of A. virens were assigned to each time interval for a total of 35 M. edulis, 35 F. virilis and 50 A. virens.
(§3) After the assigned storage interval, each tissue sample was removed from its storage solution and reweighed. […] To control for changes in tissue weight during storage, a correction ratio was calculated by dividing the tissue weight prior to storage by the post storage weight. Each extract subsample weight was then multiplied by the correction ratio to estimate the fresh tissue weight equivalent for that subsample. These values were then used to calculate normalized yield (see statistical analysis). DNA was extracted from tissues using the DNeasy Blood and Tissue Kit (Qiagen; Hilden, Germany) following the manufacturers recommended protocol with tissues digested overnight and DNA eluted by adding two sequential 50 μl volumes of Buffer AE for a total elution volume of 100 μl. […]

Data set [4] has as its system high molecular weight DNA in body tissue of Alitta virens. The data set is described as above. Conditions: A. virens, 3 months, room temperature. The protocol: as §1, §2, §3
In data set [5] the test system is high molecular weight DNA in tissues of Mytilus edulis, Faxonius virilis and Alitta virens. As to the kind of experiment: Qualitative DNA fragment length distribution by agarose gel electrophoresis, several taxa. Conditions: M. edulis and F. virilis, 6 months, room temperature. The protocol: as §2
Another data set relates to rat. As to conditions: oral; cited from earlier work.

For `CCO` [EtOH, ethanol], in data set [1], the “high molecular weight DNA yielded” value was “little or no high molecular weight DNA”. Also, in data set [2], the “normalized high molecular weight DNA yield (nY)” value is “equal to or significantly greater than fresh tissues” and the “percent high molecular weight DNA recovered (% R)” value is “equal to or significantly greater than fresh tissues”. The “percent high molecular weight DNA recovered (% R), average” value in data set [3] was determined as 15.37%. Besides, in data set [4], the “normalized high molecular weight DNA yield (nY)” value is “performed significantly better than tissues preserved in DE, DSS, D and E”; the “percent high molecular weight DNA recovered (% R)” value is “performed significantly better than tissues preserved in DE, DSS, D and E”. Besides, the “high molecular weight DNA visualized by agarose gel electrophoresis” value in data set [5] is recorded as “evident”.
Take `[Cl-].[Na+]` [NaCl, sodium chloride]: the LD50 with rat is 3,000 mg/kg.
